Reference: patent US10633389B2, “CARM1 inhibitors and uses thereof” (Epizyme, Inc., priority 2013, dated 2020)

Tests used:
NCI-H929 cells = experiment: Human myeloma cell line 14-day proliferation assay, NCI-H929; type: cell-based; details: NCI-H929 Human Multiple Myeloma cell line, varying doses, 14-day proliferation assay (FIG. 1A)
Description: (§1) FIGS. 1A and 1B show cell proliferation in response to the presence of compounds of the current invention. Human Multiple Myeloma cell lines NCI-H929 (FIG. 1A) and U266B1 (FIG. 1B) were treated with varying doses of 304-1a (medium grey data points), 23-3 (light grey data points), and 113-3 (black data points) in a 14-day proliferation assay. At the end of the experiment, total cell number was determined for each cell line for different doses of 304-1a, 23-3, and 113-3.
as §1, with “Human” for “FIGS. 1A and 1B show cell proliferation in response to the presence of compounds of the current invention. Human”

[1] = test system: asymmetric di-methyl PABP1 in RKO cells; experiment: RKO methylation assay, In Cell Western (ICW) for asymmetric di-methyl PABP1; type: cell-based; details: Homo sapiens, RKO, Cellular potencies, ICW PABP1me2a
Procedure, shortened: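 RKO cells treated with compound for 48 h at 37 °C, then fixed, permeabilized and immunostained for asymmetric di-methyl PABP1, with DRAQ5 as DNA stain. Infrared 700/800 nm signal ratio normalized to DMSO and 20 μM reference-compound controls; IC50 from triplicate wells.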

U266B1 cells = experiment: Human myeloma cell line 14-day proliferation assay, U266B1; type: cell-based; details: U266B1 Human Multiple Myeloma cell line, varying doses, 14-day proliferation assay (FIG. 1B)
Description: as §1
as §1, with “Human” for “FIGS. 1A and 1B show cell proliferation in response to the presence of compounds of the current invention. Human”

human CARM1 (PRMT4) = human CARM1 (PRMT4) (Homo sapiens (Human), UniProt Q86X55); experiment: CARM1 enzyme assay on peptide substrate (3H-SAM Flashplate); details: Biochemical potencies, read-out: Biochem IC50
Chain of human CARM1 (PRMT4) (Q86X55 other isoform, or with tags, fused parts or gaps isoform Q86X55-1): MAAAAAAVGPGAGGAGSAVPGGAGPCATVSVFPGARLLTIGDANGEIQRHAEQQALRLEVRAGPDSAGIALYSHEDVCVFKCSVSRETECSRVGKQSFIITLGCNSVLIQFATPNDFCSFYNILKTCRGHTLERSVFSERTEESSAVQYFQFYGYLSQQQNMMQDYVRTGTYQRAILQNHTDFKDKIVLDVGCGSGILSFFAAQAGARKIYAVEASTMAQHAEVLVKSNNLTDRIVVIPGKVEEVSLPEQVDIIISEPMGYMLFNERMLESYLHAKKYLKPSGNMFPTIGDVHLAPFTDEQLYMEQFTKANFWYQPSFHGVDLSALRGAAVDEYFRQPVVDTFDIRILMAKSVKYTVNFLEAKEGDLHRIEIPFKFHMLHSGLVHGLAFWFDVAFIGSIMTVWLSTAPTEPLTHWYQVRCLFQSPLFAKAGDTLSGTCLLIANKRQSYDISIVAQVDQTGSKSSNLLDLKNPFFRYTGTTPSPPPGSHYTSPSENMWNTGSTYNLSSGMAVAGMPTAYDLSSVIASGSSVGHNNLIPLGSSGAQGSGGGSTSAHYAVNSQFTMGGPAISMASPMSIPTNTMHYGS

**Q.** With `CNC[C@@H](O)COc1ccc(Cl)c(-c2nc(-c3c(C)noc3C)c(C)c(N3Cc4cccnc4C3)n2)c1` [Example 113-3] as the compound, how does the “cell proliferation (total cell number)” value (NCI-H929 cells) read?
**A.** The value was “decreased the proliferation”.

**Q.** What about the IC50 [1] of the same compound?
**A.** The IC50 was less than 5 µM.

**Q.** And the “cell proliferation (total cell number)” value (U266B1 cells)?
**A.** Its value is “decreased the proliferation”.

**Q.** For `CNC[C@@H](O)COc1ccc(Cl)c(-c2nc(NC3CCN(C(=O)OC)CC3)c(Cl)c(-c3c(C)noc3C)n2)c1` [Example 304-1a], which “cell proliferation (total cell number)” value (NCI-H929 cells) is on record?
**A.** The value was “decreased the proliferation”.

**Q.** What about the IC50 [1] of the same compound?
**A.** Its IC50 is less than 5 µM.

**Q.** What about the “cell proliferation (total cell number)” value (U266B1 cells) of the same compound?
**A.** Its value is “decreased the proliferation”.

**Q.** What does the source list for `CCOC(=O)N1CCOC[C@@H]1CNc1nc(-c2cc(OC[C@H](O)CNC)ccc2Cl)nc(-c2c(C)noc2C)c1C` [Example 23-3]?
**A.** cell proliferation (total cell number) (NCI-H929 cells): decreased the proliferation; IC50 [1]: < 5 µM; cell proliferation (total cell number) (U266B1 cells): decreased the proliferation

**Q.** Which results are given for `CNCC(O)COc1cccc(-c2nc(-c3c(C)noc3C)c(C)c(-c3c(C)noc3C)n2)c1` (stereo not shown) [Example 25-1a]?
**A.** IC50 (human CARM1 (PRMT4)): 0.1 to 1 µM; IC50 [1]: 10 to 20 µM

**Q.** Which results are given for `CNCC(O)COc1cccc(-c2nc(NC3CCOCC3)cc(C3CC3)n2)c1` (stereo not shown) [Example 646-1a]?
**A.** IC50 (human CARM1 (PRMT4)): 0.1 to 1 µM; IC50 [1]: ≥ 20 µM
